Measurements taken from paper PMC2652407 (Journal of Medicinal Chemistry, 2009).

Tests used:
hAdoMetDC [1] = molecular target: T1, hAdoMetDC (Homo sapiens, UniProt P17707); conditions: previously reported AdoMetDC inhibitor; cited from earlier work
T1 sequence (P17707 1-67 limits assumed): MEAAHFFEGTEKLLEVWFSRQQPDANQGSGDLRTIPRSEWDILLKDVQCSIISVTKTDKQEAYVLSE
T1 sequence (P17707 68-328 limits assumed): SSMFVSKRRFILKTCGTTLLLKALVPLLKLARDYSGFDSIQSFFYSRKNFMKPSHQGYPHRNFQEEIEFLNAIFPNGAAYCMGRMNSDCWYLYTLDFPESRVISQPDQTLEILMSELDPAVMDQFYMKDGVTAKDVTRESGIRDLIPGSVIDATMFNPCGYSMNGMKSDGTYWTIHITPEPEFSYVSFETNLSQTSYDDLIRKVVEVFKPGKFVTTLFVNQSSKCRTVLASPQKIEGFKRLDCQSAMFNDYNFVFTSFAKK

hAdoMetDC [2] = molecular target: T1, hAdoMetDC; assay type: biochemical; conditions: versus corresponding 8-H parent compound

reduction in the IC50 value / increase in potency when an 8-methyl substituent was added to the adenine ring (hAdoMetDC [2]) [fold]	SMILES	Ki (hAdoMetDC [1])
–	C[S+](C)C[C@H]1O[C@@H](n2cnc3c(N)ncnc32)[C@H](O)[C@@H]1O.[Cl-] [Compound 25d, 5′-Deoxy-5′-dimethylsulfonioadenosine chloride]	μM range
3.4	Cc1nc2c(N)ncnc2n1[C@@H]1O[C@H](CN(C)CCCCON)[C@@H](O)[C@H]1O.O=S(=O)(O)O [Compound 14d, 5′-[(4-Aminooxybutyl)methylamino]-5′-deoxy-8-methyladenosine sulfate (1.9:1 salt)]	–
